Results on five compounds are retold here after article PMC8659060, “Neuroprotective Potential of Synthetic Mono-Carbonyl Curcumin Analogs Assessed by Molecular Docking Studies” (Molecules, 2021).

Molecules are shown by their SMILES. Where two headings read alike, the source gives them in different places.

Usually inhibition stands for the drop in the measured response relative to a control, in per cent. The term IC50 denotes the concentration at which inhibition is half-maximal.

The test system of assay [1] is scopolamine-induced amnesia in mice. The assay is described as follows: Elevated plus maze (EPM), scopolamine-induced amnesia. Format: in vivo, Balb/C mice. The settings on record: then scopolamine 1 mg/kg i.p., mean ± SEM, n = 6. The protocol:
(§1) Balb/C mice iwth a weight of (17–23 gm) were procured from the NIH (National Institute of Health), Islamabad, which were kept for breeding under favorable conditions in the animal house of the Pharmacy Department, Shaheed Benazir Bhutto University Sheringal Dir (Upper). Light/dark cycle of about 12 h each was maintained, with relative humidity of 50–55% at 22–25 °C. This work was conducted with approval from the Departmental Ethical Committee (SBBU/IEC-20-02) of the Scientific Procedure Issue-I of the University of Malakand in compliance with provision of the 2008 Animal Byelaws.
(§2) Mice were divided into thirteen groups with 6 mice in each group.
(§3) Group I. Normal control group (vehicle treated) received 10 mL/kg (i.p.) normal saline.
(§4) Group IV–XIII. Sample (curcumin analog)-treated groups. Synthesized curcumin analogs were administered in doses of 7.5 mg/kg and 15 mg/kg (p.o.), respectively.
(§5) The groups were kept for 7 days at various treatments doses.
The EPM consisted of two open arms and two closed arms with dimensions of 16 cm × 5 cm × 12 cm, and was made from two poly acrylic sheets and designed as a plus sign with a central platform with dimensions of 5 cm × 5 cm, which was elevated 25 cm from the floor on a wooden stand. Mice were placed in the open arm in such a position that their direction was facing away from the central platform; then, the transfer latency time (TLT) was noted when the mice moved to the closed arm with its four legs from the open arm and then returned to their home cage. […] The following formula was used for calculation of inflexion ratio (IR). IR=L0−L1/L0 where L1 = initial transfer latency (s) and L0 = retention transfer latency (s).

Assay [2] relates to scopolamine-induced memory impairment in mice. The assay is described as follows: Novel object recognition test (NORT), scopolamine-induced memory impairment. Format: in vivo, Balb/C mice. To be noted: for % DI in exploring the novel object versus scopolamine-treated group (in words): long-term memory, donepezil 2 mg/kg; for % DI in exploring the novel object versus scopolamine-treated group (in words) / Exploration time for the novel object in the test phase (in words): h compounds 7.5 and 15 mg/kg; for Exploration time for the novel object in the test phase (in words): DZP 2 mg/kg. The protocol:
as §1, §2, §3, §4, §5
The synthesized curcumin analogs were tested for possible memory enhancement potential by using novel object recognition test apparatus, which was designed using plexi glass with dimension of 40 cm × 40 cm × 30 cm. The mice, after acclimatization period, were allowed to move for 2–3 min one day before the test for habituation. In the two corners of the NORT apparatus, two identical objects were placed on the test day in the sample phase (T1), and the object exploration time was recorded. The objects were regarded as being explored when the mice touched the objects or directed their nose toward the object at a distance of less than 2 cm, […], the test phase (T2) was started, in which one of the familiar objects was replaced with a novel (new) object. Mice again freely explored the objects in similar manner to that in T1, and the exploration time for the novel (new) object and the familiar (F) object were noted separately. The DI (discrimination index) was measured using the following formula: DI=N−F/N+F

Another assay addresses T1, BChE (Equus caballus, UniProt P81908).
T1 construct: obtaining AChE and BChE enzymes from electric eel and equine serum, respectively; from tissue; host or cells: equine serum
The assay is described as follows: biochemical. The settings on record: for inhibition at 62.5 µg/mL / inhibition at 125 µg/mL / inhibition at 250 µg/mL / inhibition at 500 µg/mL / inhibition at 1000 µg/mL: read-out: BChE percent enzyme inhibition, Mean ± SEM; for IC50: Ellman's method, 1000 to 62.5 μg/mL, n = 3, read-out: BChEI (IC50) (converted). As for the experimental part: (§6) Evaluation of anticholinesterase activity of the synthesized compounds was performed according to Ellman’s method and was determined by obtaining AChE and BChE enzymes from electric eel and equine serum, respectively. DMSO was used for the dissolution of test samples (1 mg/mL), which were diluted in phosphate buffer (0.1 M) to concentrations from 1000 to 62.5 µg/mL. Phosphate buffer in 0.1 M, pH 8.0 was used for the dilution of 518 U/mg AChE and 7–16 U/mg BChE to obtain final concentrations of 0.03 U/mL and 0.01 U/mL for AChE and BChE, respectively. Substrate solutions of 0.5 mM ATchI, 0.2273 mM DTNB and 0.5 mM BTchI in distilled water were made and maintained separately in Eppendorf tubes at 8 °C in a refrigerator. The assay was started by adding 5 µL enzyme solution to a cuvette, then adding 205 µL test sample followed by 5 µL DTNB reagent. A 5 µL volume of substrate solution was added, and the solution mixture was maintained for 15 min in water bath at 30 °C. A spectrophotometer was used to measure absorbance at 412 nm at 30 °C with a reaction time of 4 min. […] The following formula was used for calculation of % enzyme inhibition.

The subject of assay [3] is T2, AChE in the hippocampus region of mouse brain.
T2 construct: from tissue; host or cells: mouse brain hippocampus (supernatant of homogenate)
Format: in vivo. To be noted: pretreatment, then scopolamine, n = 6. As for the experimental part: as §5
(§7) The mice were sacrificed immediately after the behavioral study by cervical dislocation to provide quick and painless death to each animal before decapitation. Brain of each animal was excised in phosphate buffer saline (chilled) and incorporated into biochemical biomarker analysis.
(§8) Cholinesterase (AChE and BChE) levels were determined in the excised brain hippocampus using Ellman’s method with slight modification. Supernatant (0.4 mL), 0.1 M/L, pH 8 phosphate buffer (2.6 mL), and 100 µL of DTNB (5,5′-dithiobis-2-nitrobenzoic acid) and were added into cuvette and mixed. Spectrophotometer at 412 nm was run and absorbance was measured several times, then […] acetyl thiocholine iodide/butyrylthiocholine chloride was mixed into the reaction as substrate at an interval of 2 min, and variation in absorbance was noted and the changes in absorbance per min were recorded. The following formula was used for calculation of cholinesterase level: R = 5.74 × 10^−4 × A/CO where ‘R’ is the moles (rate) of substrate hydrolyzed/min/mg of protein, (A) is the change in absorbance/min, and ‘CO’ is concentration (20 mg/mL) of protein.

For assay [4], the system named is T3, BChE in the hippocampus region of mouse brain.
T3 construct: from tissue; host or cells: mouse brain hippocampus (supernatant of homogenate)
Format: in vivo. To be noted: pretreatment, then scopolamine, n = 6. As for the experimental part:
as §5, §7, §8

A further assay has as its target T4, AChE (Electrophorus electricus, UniProt O42275).
T4 construct: obtaining AChE and BChE enzymes from electric eel and equine serum, respectively; from tissue; host or cells: electric eel
The assay is described as follows: biochemical. To be noted: for inhibition at 62.5 µg/mL / inhibition at 125 µg/mL / inhibition at 250 µg/mL / inhibition at 500 µg/mL / inhibition at 1000 µg/mL: read-out: AChE percent enzyme inhibition, Mean ± SEM; for IC50: Ellman's method, 1000 to 62.5 μg/mL, n = 3, read-out: AChEI (IC50) (converted). The protocol: as §6
(In general: DTNB colorimetry detects thiols as they appear.)

T4 sequence (O42275 24-633): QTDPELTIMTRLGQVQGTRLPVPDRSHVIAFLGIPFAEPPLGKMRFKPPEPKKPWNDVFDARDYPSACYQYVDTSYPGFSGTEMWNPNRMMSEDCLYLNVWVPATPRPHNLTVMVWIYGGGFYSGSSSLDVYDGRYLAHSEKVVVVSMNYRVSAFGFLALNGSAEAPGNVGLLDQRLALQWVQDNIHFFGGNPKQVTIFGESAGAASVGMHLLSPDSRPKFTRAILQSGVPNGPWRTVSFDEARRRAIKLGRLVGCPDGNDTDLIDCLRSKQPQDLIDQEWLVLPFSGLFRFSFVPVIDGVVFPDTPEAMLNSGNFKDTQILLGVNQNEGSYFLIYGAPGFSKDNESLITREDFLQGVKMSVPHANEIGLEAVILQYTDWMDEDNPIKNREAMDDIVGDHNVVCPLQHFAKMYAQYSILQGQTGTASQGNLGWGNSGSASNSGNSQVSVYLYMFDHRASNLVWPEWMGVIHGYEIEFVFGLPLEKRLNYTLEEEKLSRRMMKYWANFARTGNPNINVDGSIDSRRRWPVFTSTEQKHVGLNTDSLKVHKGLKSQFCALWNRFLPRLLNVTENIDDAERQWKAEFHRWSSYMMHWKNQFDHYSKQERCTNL
T1 sequence (P81908 whole entry): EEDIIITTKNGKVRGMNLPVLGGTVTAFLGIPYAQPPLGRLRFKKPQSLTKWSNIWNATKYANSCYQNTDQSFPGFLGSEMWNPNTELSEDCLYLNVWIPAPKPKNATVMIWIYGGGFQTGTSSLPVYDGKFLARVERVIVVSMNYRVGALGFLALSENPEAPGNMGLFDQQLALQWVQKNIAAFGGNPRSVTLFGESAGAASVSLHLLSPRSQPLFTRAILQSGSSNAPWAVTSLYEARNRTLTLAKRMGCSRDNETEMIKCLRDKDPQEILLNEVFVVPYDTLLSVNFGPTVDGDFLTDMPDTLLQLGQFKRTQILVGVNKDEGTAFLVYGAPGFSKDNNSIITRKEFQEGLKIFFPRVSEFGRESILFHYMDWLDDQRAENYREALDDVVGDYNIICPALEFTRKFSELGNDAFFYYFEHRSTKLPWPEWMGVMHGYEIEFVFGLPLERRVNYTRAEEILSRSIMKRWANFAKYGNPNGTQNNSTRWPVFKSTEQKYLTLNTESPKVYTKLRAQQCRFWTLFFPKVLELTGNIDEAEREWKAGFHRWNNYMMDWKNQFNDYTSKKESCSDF

Regarding `COc1cc2c(cc1OC)C(=O)C(CC1CCN(Cc3ccccc3)CC1)C2` (stereo not drawn) [Donepezil, reference compound], the “Retention (transfer latency time, TLT)” value in assay [1] (2 mg/kg p.o. for 7 days) stood at 25.57 ± 1.93 s; in assay [1] (2 mg/kg p.o. for 7 days, listed as donepezil), 25.57 ± 1.93 s. For the same compound, the “% DI in exploring the novel object versus scopolamine-treated group (in words)” value in assay [2] is “significant increase”. The “Exploration time for the novel object” value in assay [2] (short-term memory, test phase, 2 mg/kg p.o. + scopolamine 1 mg/kg i.p.) was 21.59 ± 2.44 s. In addition, in assay [2] (short-term memory), the “Exploration time for the novel object in the test phase (in words)” value (from here on “Exploration time … (in words)”) is “significantly higher exploration times”.
With `COc1ccc2c3c1O[C@H]1C[C@@H](O)C=C[C@@]31CCN(C)C2` [Galanthamine, reference compound], on BChE, the inhibition at 62.5 µg/mL is 61.35 ± 0.18%, the inhibition at 125 µg/mL is 66.2 ± 0.15%, the inhibition at 250 µg/mL stood at 73.42 ± 0.11% and the inhibition at 500 µg/mL came out at 78.62 ± 0.17%.
`Cc1ccc(/C=C/C(=O)/C=C/c2ccc(C)cc2)cc1` [h1, (1E,4E)-1,5-Di-p-tolylpenta-1,4-dien-3-one]: the results for the “Retention (transfer latency time, TLT)” value in assay [1] (7.5 mg/kg p.o. for 7 days) and in assay [1] (15 mg/kg p.o. for 7 days) were 33.13 ± 2.16 s and 26.18 ± 2.32 s, respectively. Moreover, in assay [2], the “% DI in exploring the novel object versus scopolamine-treated group (in words)” value is “significant increase”. Moreover, the “% DI versus scopolamine-treated group (in words)” value in assay [2] (short-term memory, 7.5 and 15 mg/kg p.o.) is “comparable values”. Besides, the “Reversal of scopolamine-increased hippocampus AChE level (in words)” value in assay [3] is “no prominent”. The “Reversal of scopolamine-increased hippocampus BChE level (in words)” value in assay [4] is “no promising results”. Also, the results for the inhibition at 62.5 µg/mL on BChE (62.5 µg/mL) and at AChE were 37.16 ± 0.12% and 45.63 ± 0.13%, respectively. The figures for the inhibition at 125 µg/mL at BChE (125 µg/mL) and on AChE were 46.25 ± 0.13% and 54.34 ± 0.17%, respectively. The inhibition at 250 µg/mL on BChE (250 µg/mL) turned out to be 51.91 ± 0.14%; at AChE it was 58.12 ± 0.16%. Further, the inhibition at 500 µg/mL worked out at 56.42 ± 0.16% on BChE (500 µg/mL) and 68.07 ± 0.18% at AChE. The inhibition at 1000 µg/mL at BChE was determined as 62.16 ± 0.04%; on AChE it was 79.67 ± 0.21%. Moreover, the IC50 at BChE is 927 µM; at AChE, 399 µM.
In the case of `COc1ccc(/C=C/C(=O)/C=C/c2ccc(OC)cc2)cc1` [h2, (1E,4E)-1,5-bis(4-Methoxyphenyl)penta-1,4-dien-3-one], the “Retention (transfer latency time, TLT)” value in assay [1] (7.5 mg/kg p.o. for 7 days) amounted to 31.51 ± 2.73 s; in assay [1] (15 mg/kg p.o. for 7 days) it was 25.32 ± 2.42 s. The “% DI in exploring the novel object versus scopolamine-treated group (in words)” value in assay [2] is “significant increase”. In assay [2] (short-term memory), the “Exploration time … (in words)” value is given as “significantly more time exploring the novel object”. Further, in assay [3], the “Reversal of scopolamine-increased hippocampus AChE level (in words)” value is recorded as “reversed”. Moreover, in assay [4], the “Reversal of scopolamine-increased hippocampus BChE level (in words)” value is reported as “significantly reversed”. For the same compound, the inhibition at 62.5 µg/mL at BChE (62.5 µg/mL) turned out to be 41.82 ± 0.18%; at AChE, 46.88 ± 0.15%. For the same compound, the inhibition at 125 µg/mL was 48.61 ± 0.15% at BChE (125 µg/mL) and 53.57 ± 0.17% on AChE. The inhibition at 250 µg/mL on BChE (250 µg/mL) came to 57.22 ± 0.01%; at AChE, 61.21 ± 0.18%. In addition, the inhibition at 500 µg/mL on BChE (500 µg/mL) worked out at 64.38 ± 0.06%; at AChE it was 73.79 ± 0.12%. For the same compound, the inhibition at 1000 µg/mL was 69.77 ± 0.03% at BChE and 76.23 ± 0.15% on AChE. Moreover, the figures for the IC50 on BChE and on AChE were 503 µM and 317 µM, respectively.
In the case of `O=C(/C=C/c1ccc(Cl)cc1)/C=C/c1ccc(Cl)cc1` [h3, (1E,4E)-1,5-bis(4-Chlorophenyl)penta-1,4-dien-3-one], the “Retention (transfer latency time, TLT)” value in assay [1] (7.5 mg/kg p.o. for 7 days) amounted to 25.26 ± 2.51 s; in assay [1] (15 mg/kg p.o. for 7 days), 21.27 ± 2.92 s. The “% DI in exploring the novel object versus scopolamine-treated group (in words)” value in assay [2] is on record as “significant increase”. For the same compound, the “Exploration time … (in words)” value in assay [2] (short-term memory) is “significantly more time exploring the novel object”. In assay [3], the “Reversal of scopolamine-increased hippocampus AChE level (in words)” value is given as “reversed”. In assay [4], the “Reversal of scopolamine-increased hippocampus BChE level (in words)” value is on record as “significantly reversed”. For the same compound, the inhibition at 62.5 µg/mL was determined as 49.25 ± 0.02% at BChE (62.5 µg/mL) and 53.53 ± 0.12% on AChE. The inhibition at 125 µg/mL on BChE (125 µg/mL) was determined as 58.33 ± 0.13%; on AChE, 62.44 ± 0.16%. For the same compound, the inhibition at 250 µg/mL worked out at 62.41 ± 0.19% on BChE (250 µg/mL) and 69.51 ± 0.13% at AChE. The results for the inhibition at 500 µg/mL at BChE (500 µg/mL) and on AChE were 69.52 ± 0.12% and 77.25 ± 0.11%, respectively. Besides, the inhibition at 1000 µg/mL at BChE amounted to 78.72 ± 0.16%; on AChE, 83.31 ± 0.13%. Also, the IC50 at BChE is 222 µM; on AChE it was 96.9 µM.
